Data from patent US5260286A, “2-piperidinecarboxylic acid derivatives useful as NMDA receptor antagonists” (Japan Tobacco, Inc., priority 1992, dated 1993).
Like-named read-outs stand apart in the source and are kept apart here.

Tests used:
NMDA receptor = assay: In vitro binding assay, inhibition of [^3 H]CGS-19755 binding at the NMDA receptor site (semipurified synaptic membranes from rat forebrain); parameters: species or system Adult male Sprague-Dawley rats; details: 10 nM [^3 H]CGS-19755, 15 minutes at 4° C., 50 mM Tris-citrate pH 7.1; read-out: Ki [^3 H]CGS19755
Protocol: The compounds of the invention were tested for their ability to inhibit [^3 H]CGS-19755 binding. Semipurified synaptic membranes were prepared according to the method of Bristow et al. (1986) with minor modifications. Adult male Sprague-Dawley rats were decapitated, and the forebrains were removed, weighed and homogenized in 20 volumes of 0.32M sucrose. The homogenate was centrifuged at 27,000×G for 15 minutes. The pellet was resuspended in 20 volumes of distilled water followed by centrifugation at 8000×G for […]. Both the supernatant and the buffy coat layer, removed with 5 mM Tris-Cl (2 mL), pH 7.8, were pooled and centrifuged at 27,000×G for 15 minutes. The supernatant was removed and the pellet was covered with a small amount of 5 mM Tris-HCl and stored at -20° C. for least 18 hours. Membranes were then washed four times in 50 mM Tris-citrate, pH 7.1, and finally resuspended in the same buffer. This suspension was used for the binding assay immediately or frozen for subsequent use.
Aliquots of membranes (800 μl) were incubated with 10 nM [^3 H]CGS-19755 (100 μl) and varying concentrations of the test compounds (100 μl) for 15 minutes at 4° C. Then a filtration assay was used. The samples were filtered over glass fiber filters using a Brandel Cell Harvester. […]
Ki values were calculated from the equation: [formula]

NMDA-Induced Lethality = assay: In vivo protection in the mouse against NMDA-induced lethality; parameters: species or system male Swiss-Webster mice; details: ip; for ED50: Mus musculus, read-out: PD50
Protocol: (§1) According to the method described by Ferkany et al. (1988), the test compounds were administered ip to four male Swiss-Webster mice (26-34 g) each, following 30 minutes later, 200 mg/kg of NMDA was administered to the mice each. […] Those compounds that protected three or more of the mice at any of the doses were evaluated further by determining the ED50 values using three or more doses with the eight mice per dose. The ED50 was estimated by the method of Litchfield and Wilcoxin (1949). Water-soluble compounds were dissolved in distilled water and administered in a volume of 10 mL/kg. Water-insoluble compounds were suspended in an aqueous solution of 0.5% methyl cellulose and administered in a volume of 20 mL/kg.

NMDA recognition site = details: Lehman et al., 1988; Murphy et al., 1987; cited from earlier work
[1] = Lethality of NMDA in mice; parameters: species or system male Swiss-Webster mice; details: mouse, in vivo
Protocol: as §1

[2] = 30 minutes before 200 mg/kg NMDA, Litchfield and Wilcoxin

| SMILES | Ki (NMDA receptor) [µM] | ED50 (NMDA-Induced Lethality; 30 minutes before 200 mg/kg NMDA, eight mice per dose, Litchfield and Wilcoxin) [mg/kg] | Confidence Limits (of PD50) (NMDA-Induced Lethality; [2]) | Slope (NMDA-Induced Lethality; [2]) | antagonists at the NMDA recognition site (NMDA recognition site) | ED50 (NMDA-Induced Lethality) [mg/kg] | mortality ([1]; 200 mg/kg NMDA, read-out: mice died at 200 mg/kg NMDA) [%] | LD50 ([1]; mice) [mg/kg] |
| --- | --- | --- | --- | --- | --- | --- | --- | --- |
| O=C(O)[C@H]1C[C@@H](CP(=O)(O)O)CCN1 (relative stereo) [CGS-19755, cis-4-(phosphonomethyl)-2-piperidinecarboxylicacid] | 0.112 | 2 | 1.2-3.6 | 2.46 | high-affinity antagonists |  |  |  |
| O=C(O)C1C/C(=C/P(=O)(O)O)CCN1 (centres unmarked) [E-4-(phosphonomethylidene)-2-piperidinecarboxylic acid] | 0.59 |  | 0.5-2.2 | 1.96 |  | 1.1 |  |  |
| CN[C@H](CC(=O)O)C(=O)O [NMDA, N-methyl-D-aspartate] |  |  |  |  |  |  | ~90 | 164 |
